# Laboratory results: US20250179061A1 (SIRONAX LTD., priority 2022, published 2025)
# Tested on: HT-29 cells
# Experiment: HT-29 necroptosis cell viability assay (TNF-α/SMAC mimetic/zVAD-FMK, CellTiter-Glo)
# Assay type: cell-based
# Settings: Homo sapiens; HT-29 cells stimulated with TNF-α (10 ng/ml), SMAC mimetic (6 μM) and zVAD-FMK (10 μM); 20 hours; CellTiter-Glo ATP luminescence; geometric mean IC50 from 10 points; read-out: Activity
# Method: Compounds 1-702 of the disclosure were tested for biological activity, following the experimental procedures described below.
# • Cell line: HT-29 (ATCC® HTB-38™) • Culture medium: McCOY's 5A, Gibco, Cat No. 16600-082 • FBS, Gibco, Cat No. 10099-141 C • Trypsin: Gibco, Cat No. 25200-056 • DMSO: Sigma, Cat No. 67-68-5, 1L • Assay plate: Corning #3903 • Compound dilution plate: Corning #3357 • Inducers: TNFα, GenScript, Cat No. Z01001-50, • SmacM, Cat. No., HY-15989, MedChemExpress (MCE) • Z_VAD FMK, TargetMol, T6013 • Cell Titer-Glo® Luminescent Cell Viability Assay Kit: Promega, Cat No. G7573 • EnVision: PerkinElmer, 2105-0010
# • 1. HT-29 cells were checked every day to make sure that they were healthy and growing as expected. They were subjected to sub-culturing when they were approximately 80% confluent. • 2. The culture medium, McCOY's 5A medium (Gibco, Cat No. 16600-082) with 10% fetal bovine serum or FBS (Gibco, Cat No. 10099-141C), was pre-warmed in a 37° C. water bath for at least 30 min. • 3. When the cells had reached a desired level of confluency of 80% in a T75 flask, the medium was aspirated, and the cells were washed with warm phosphate buffered saline or PBS two times. • 4. 2-3 ml fresh warm trypsin (Gibco, Cat No. 25200-056) solution was added to the washed cells. The flask with the cells was transferred to a 37° C. incubator. • 5. After 5 minutes, the side of the flask was tapped, and the flask was examined under a microscope for detachment of the cells to the flask. If necessary, the cells were kept in the incubator for an additional 5-10 minutes, with occasional tapping, until lifting was complete. • 6. The trypsin reaction was neutralized by transferring 6-9 ml cell culture medium to sterile 15 ml conical tubes, and by centrifuging the cell culture at 300×g for 7 minutes to pellet the cells (supernatant decanted). • 7. The cells were resuspended in fresh cell culture medium and the cell counting was performed using a hemocytometer. • 8. 100 μl of the resuspended cell culture medium containing ˜5,000 cells were transferred into each well of the sterile 96-well cell culture plate (Corning 3903) and cultured overnight at 37° C. with 5% CO2.
# • 1. All test compounds were dissolved in DMSO (Dimethyl sulfoxide) to create a 20 mM stock. • 2. 3 μl of 20 mM stock of each compound was mixed with 27 μl DMSO, and the compound solution was further diluted at a titration ratio of 1:3 (20 μl compound solution+40 μl DMSO) till the 10 points end. • 3. All culture medium was removed from assay plates filled with HT-29 cell cultures. The cells were then washed with 1 PBS, and resuspsended in fresh, FBS-free McCOY's 5A medium containing a cocktail of TNF-α (10 ng/ml), a SMAC mimetic compound (6 μM) and Z-VAD-fluoromethylketone or zVAD-FMK (10 μM) to stimulate the HT-29 cells to increase RIP1 kinase levels and necroptosis. • 4. 0.5 μL of the diluted compound solution was added to the corresponding 96-well assay plates. • 5. The assay plates were incubated for 20 hours at 37° C. with 5% CO2.
# • 1. The CellTiter-Glo® Luminescent Cell Viability Assay was employed to detect the ATP levels of viable HT-29 cells. • 2. The CellTiter-Glo® buffer and the lyophilized substrate were equilibrated to room temperature prior to use. • 3. The CellTiter-Glo® substrate was resuspended with CellTiter-Glo® buffer, then mixed by gently vortexing to obtain a homogeneous solution. • 4. 20 μl of the enzyme/substrate mixture was transferred by multi-channel pipetting into 96-well assay plates. • 5. The assay plates were placed on an orbital shaker and the contents were shaken for 3 minutes to induce cell lysis. • 6. The assay plates were incubated at room temperature for 10 minutes to stabilize the luminescent signal. • 7. The luminescence signals were read and recorded with EnVision. • 8. The geometric mean IC50 values were calculated from 10 points response dose with duplicates. […]
row,SMILES,IC50 [nM]
1,"Cc1cc(C(N)=O)n(C)c1Oc1ccc(-n2nc3n(c2=O)[C@H](c2ccccc2)CC3)cc1F (single isomer, unassigned) [Example 697]",< 100
2,"Cc1nc(C(N)=O)sc1Oc1ccc(-n2nc3n(c2=O)[C@H](c2ccccc2F)C[C@@H]3F)cc1F (single isomer, unassigned) [Example 698]",< 100
3,"Cn1nc(C(N)=O)cc1Oc1ccc(-n2nc3n(c2=O)[C@H](c2ccccc2F)C[C@@H]3F)cc1F (single isomer, unassigned) [Example 699]",< 100
4,"Cc1nc(C(N)=O)sc1Oc1ccc(-n2nc3n(c2=O)[C@H](c2cncc(F)c2)CC3)cc1F (single isomer, unassigned) [Example 700]",< 100
5,"Cc1nc(C(N)=O)oc1Oc1ccc(-n2nc3n(c2=O)[C@H](c2c(F)cccc2F)CC3)cc1F (single isomer, unassigned) [Example 701]",< 100
6,"Cc1nc(C(N)=O)sc1Oc1ccc(-n2nc3n(c2=O)[C@H](C2CCCC2)CC3)cc1F (single isomer, unassigned) [Example 702]",< 100
7,"Cc1nc(Br)sc1Oc1ccc(-n2ncn(Cc3c(F)cccc3F)c2=O)cc1F [Example 1, 2-(4-((2-bromo-4-methylthiazol-5-yl)oxy)-3-fluorophenyl)-4-(2,6-difluorobenzyl)-2,4-dihydro-3H-1,2,4-triazol-3-one]",< 100
8,"Cc1ncsc1Oc1ccc(-n2ncn(Cc3c(F)cccc3F)c2=O)cc1F [Example 2, 4-(2,6-difluorobenzyl)-2-(3-fluoro-4-((4-methylthiazol-5-yl)oxy)phenyl)-2,4-dihydro-3H-1,2,4-triazol-3-one]",< 100
9,"Cc1ncsc1Oc1ccc(-n2ncn(Cc3c(F)cccc3F)c2=O)cc1Cl [Example 5, 2-(3-chloro-4-((4-methylthiazol-5-yl)oxy)phenyl)-4-(2,6-difluorobenzyl)-2,4-dihydro-3H-1,2,4-triazol-3-one]",< 100
10,"Cc1nc(Br)sc1Oc1ccc(-n2ncn(Cc3ccccc3C#N)c2=O)cc1F [Example 6, 2-((1-(4-((2-bromo-4-methylthiazol-5-yl)oxy)-3-fluorophenyl)-5-oxo-1-5-dihydro-4H-1,2,4-triazol-4-yl)methyl)benzonitrile]",100 to 1000
11,"Cc1nc(Br)sc1Oc1ccc(-n2ncn(Cc3c(F)cccc3C#N)c2=O)cc1F [Example 7, 2-((1-(4-((2-bromo-4-methylthiazol-5-yl)oxy)-3-fluorophenyl)-5-oxo-1,5-dihydro-4H-1,2,4-triazol-4-yl)methyl)-3-fluorobenzonitrile]",< 100
12,"Cc1ncsc1Oc1ccc(-n2ncn(Cc3ccccc3F)c2=O)cc1F [Example 8, 2-(3-fluoro-4-((4-methylthiazol-5-yl)oxy)phenyl)-4-(2-fluorobenzyl)-2,4-dihydro-3H-1,2,4-triazol-3-one]",< 100
13,"Cc1ncsc1Oc1ccc(-n2ncn(Cc3cc(Cl)ccn3)c2=O)cc1F [Example 9, 4-((4-chloropyridin-2-yl)methyl)-2-(3-fluoro-4-((4-methylthiazol-5-yl)oxy)phenyl)-2,4-dihydro-3H-1,2,4-triazol-3-one]",100 to 1000
14,"COC(=O)c1nc(C)c(Oc2ccc(-n3ncn(Cc4cc(Cl)ccn4)c3=O)cc2F)s1 [Example 10, methyl 5-(4-(4-((4-chloropyridin-2-yl)methyl)-5-oxo-4,5-dihydro-1H-1,2,4-triazol-1-yl)-2-fluorophenoxy)-4-methylthiazole-2-carboxylate]",1000 to 10000
15,"Cc1nc(Oc2ccncc2)sc1-n1ncn(Cc2c(F)cccc2F)c1=O [Example 11, 4-(2,6-difluorobenzyl)-2-(4-methyl-2-(pyridin-4-yloxy)thiazol-5-yl)-2,4-dihydro-3H-1,2,4-triazol-3-one]",> 10000
16,"O=c1n(-c2ccc(Oc3cc(Cl)ncc3F)c(F)c2)nc2n1C(c1ccccc1)CC2 (stereo not shown) [Example 12, 2-(4-((2-chloro-5-fluoropyridin-4-yl)oxy)-3-fluorophenyl)-5-phenyl-2,5,6,7-tetrahydro-3H-pyrrolo[2,1-c][1,2,4]triazol-3-one]",< 100
17,"Cc1nc(C(N)=O)sc1Oc1ccc(-n2nc3n(c2=O)C(c2ccccc2)CC3)cc1F (stereo not shown) [Example 13, 5-(2-fluoro-4-(3-oxo-5-phenyl-6,7-dihydro-3H-pyrrolo[2,1-c][1,2,4]triazol-2(5H)-yl)phenoxy)-4-methylthiazole-2-carboxamide]",< 100
18,"Cc1nc(C(=O)N2C[C@@H](C)O[C@@H](C)C2)sc1Oc1ccc(-n2nc3n(c2=O)[C@H](c2ccccc2)CC3)cc1F [Example 20, (S)-2-(4-((2-((2S,6R)-2,6-dimethylmorpholine-4-carbonyl)-4-methylthiazol-5-yl)oxy)-3-fluorophenyl)-5-phenyl-2,5,6,7-tetrahydro-3H-pyrrolo[2,1-c][1,2,4]triazol-3-one]",< 100
19,"Cc1nc(C(=O)NC2COC2)sc1Oc1ccc(-n2nc3n(c2=O)[C@H](c2ccccc2)CC3)cc1F [Example 21, (S)-5-(2-fluoro-4-(3-oxo-5-phenyl-6,7-dihydro-3H-pyrrolo[2,1-c][1,2,4]triazol-2(5H)-yl)phenoxy)-4-methyl-N-(oxetan-3-yl)thiazole-2-carboxamide]",< 100
20,"Cc1nc(C(=O)N2CCOCC2)sc1Oc1ccc(-n2ncn(Cc3c(F)cccc3F)c2=O)cc1F [Example 22, 4-(2,6-difluorobenzyl)-2-(3-fluoro-4-((4-methyl-2-(morpholin-4-carbonyl)thiazol-5-yl)oxy)phenyl)-2,4-dihydro-3H-1,2,4-triazol-3-one]",< 100
21,"Cc1c(C(N)=O)nn(C)c1Oc1ccc(-n2nc3n(c2=O)C(c2ccccc2)CC3)cc1F (stereo not shown) [Example 23, 5-(2-fluoro-4-(3-oxo-5-phenyl-6,7-dihydro-3H-pyrrolo[2,1-c][1,2,4]triazol-2(5H)-yl)phenoxy)-1,4-dimethyl-1H-pyrazole-3-carboxamide]",< 100
22,"Cc1nc(C(=O)NCCN2CCOCC2)sc1Oc1ccc(-n2ncn(Cc3c(F)cccc3F)c2=O)cc1F [Example 24, 5-(4-(4-(2,6-diflurobenzyl)-5-oxo-4,5-dihydro-1H-1,2,4-triazol-1-yl)-2-fluorophenoxy)-4-methyl-N-(2-morpholinoethyl)thiazole-2-carboxamide]",< 100
23,"Cc1nc(C(=O)NCCN2CCOCC2)sc1Oc1ccc(-n2ncn(Cc3ccccc3F)c2=O)cc1F [Example 25, 5-(2-fluoro-4-(4-(2-fluorobenzyl)-5-oxo-4,5-dihydro-1H-1,2,4-triazol-1-yl)phenoxy)-4-methyl-N-(2-morpholinoethyl)thiazole-2-carboxamide]",< 100
24,"Cc1cccnc1Cn1cnn(-c2ccc(Oc3sc(C(N)=O)nc3C)c(F)c2)c1=O [Example 26, 5-(2-fluoro-4-(4-((3-methylpyridin-2-yl)methyl)-5-oxo-4,5-dihydro-1H-1,2,4-triazol-1-yl)phenoxy)-4-methylthiazole-2-carboxamide]",100 to 1000
25,"Cc1nc(C(=O)NCCN)sc1Oc1ccc(-n2ncn(Cc3ccccc3F)c2=O)cc1F [Example 27, N-(2-aminoethyl)-5-(2-fluoro-4-(4-(2-fluorobenzyl)-5-oxo-4,5-dihydro-1H-1,2,4-triazol-1-yl)phenoxy)-4-methylthiazole-2-carboxamide]",< 100
